Results as given in PubChem BioAssay (NCI).
“And” between values parts separate entries of the source, which are not always exact repeats. Equal entries are not always repeated.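 Five concentrations, 48 hours, 96-well plates. At the GI50, growth is halved. TGI: total growth inhibition.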

Key:
Test in all cases: NCI anticancer screen, dose series, 48 h
[1] = tested on: DU-145 prostate
[2] = tested on: HCT-15 colon
[3] = tested on: NCI/ADR-RES ovarian
[4] = tested on: OVCAR-3 ovarian
[5] = tested on: OVCAR-5 ovarian
[6] = tested on: SF-295 CNS
[7] = tested on: SN12C renal
[8] = tested on: TK-10 renal
[9] = tested on: HOP-92 NSCLC

C[C@@H]1C[C@H](N)C[C@H](c2ccncc2NC(=O)c2ccc(F)c(-c3c(F)cccc3F)n2)C1
GI50 [1]: 13.5 µM and > 10 µM
TGI [1]: 26.3 µM and > 10 µM
GI50 [2]: 11.6 µM and > 10 µM
TGI [2]: 25.7 µM and > 10 µM
GI50 [3]: 14.5 µM and > 10 µM
TGI [3]: 30.6 µM and > 10 µM
GI50 [4]: 14.3 µM and > 10 µM
TGI [4]: 28.2 µM and > 10 µM
GI50 [5]: 12.3 µM and > 10 µM
TGI [5]: 25.9 µM and > 10 µM
GI50 [6]: 12.6 µM and > 10 µM
TGI [6]: 25.8 µM and > 10 µM
GI50 [7]: 12.3 µM and > 10 µM
TGI [7]: 25.7 µM and > 10 µM
GI50 [8]: 13.1 µM and > 10 µM
TGI [8]: 26.8 µM and > 10 µM

Cc1ccc(OCC2CO2)c(Br)c1 (stereo unspecified)
TGI [1]: > 100 µM
TGI [2]: 29.2 µM
TGI [9]: 36.5 µM
TGI [3]: 33 µM
TGI [4]: 68 µM
TGI [5]: 34.6 µM
TGI [6]: 63.7 µM
TGI [7]: 45 µM
TGI [8]: > 100 µM

COc1ccc2c(c1)c(-c1nc(-c3cn(C)c4ccncc34)cs1)cn2C
GI50 [1]: 1.78 µM
TGI [1]: 3.34 µM
GI50 [2]: 1.54 µM
TGI [2]: 3.33 µM
GI50 [9]: 1.96 µM
TGI [9]: 3.79 µM
GI50 [4]: 1.99 µM
TGI [4]: 3.77 µM
GI50 [5]: 1.81 µM
TGI [5]: 3.53 µM
GI50 [6]: 1.66 µM
TGI [6]: 3.16 µM
GI50 [7]: 1.85 µM
TGI [7]: 3.49 µM
GI50 [8]: 1.49 µM
TGI [8]: 3.06 µM

COc1cc2nc(Nc3cccc(Cl)c3)nc(N)c2cc1OC
GI50 [1]: 6.74 µM
TGI [1]: 22.8 µM
GI50 [2]: 2.62 µM
TGI [2]: 10.4 µM
GI50 [9]: 2.59 µM
TGI [9]: 14.6 µM
GI50 [3]: 7.61 µM
TGI [3]: 33.9 µM
GI50 [4]: 4.12 µM
TGI [4]: 12.6 µM
GI50 [5]: 17.2 µM
TGI [5]: 35.4 µM
GI50 [6]: 4.37 µM
TGI [6]: > 36.3 µM
GI50 [7]: 12 µM
TGI [7]: 24.3 µM
GI50 [8]: 14.2 µM
TGI [8]: 37.8 µM

O=[N+]([O-])c1ccc(-c2csc(N=Nc3c(O)[nH]c4ccccc34)n2)cc1
TGI [1]: > 100 µM
TGI [2]: 30.1 µM
TGI [9]: 74.5 µM
TGI [3]: > 100 µM
TGI [4]: > 100 µM
TGI [5]: 45.4 µM
TGI [6]: > 100 µM
TGI [7]: 96.5 µM
TGI [8]: 35.6 µM

Nc1nc(=O)n(C2CCC(CO)O2)cc1F (stereo unspecified)
TGI [2]: > 100 µM
TGI [9]: > 100 µM
TGI [4]: > 100 µM
TGI [5]: > 100 µM
TGI [6]: > 100 µM
TGI [7]: > 100 µM
TGI [8]: > 100 µM

CSC(=NC(=O)c1ccccc1Cl)SCCSC(=NC(=O)c1ccccc1Cl)SC
TGI [2]: > 100 µM
TGI [9]: > 100 µM
TGI [4]: > 100 µM
TGI [5]: > 100 µM
TGI [6]: > 100 µM
TGI [7]: > 100 µM
TGI [8]: > 100 µM

COc1ccccc1C#Cc1ccccc1C#Cc1ccc(OCCCCCCOc2ccccc2C#Cc2ccccc2C#Cc2ccccc2OC)cc1
GI50 [1]: > 100 µM
TGI [1]: > 100 µM
GI50 [2]: > 100 µM
TGI [2]: > 100 µM
GI50 [9]: 90.1 µM
TGI [9]: > 100 µM
GI50 [3]: > 100 µM
TGI [3]: > 100 µM
GI50 [4]: > 100 µM
TGI [4]: > 100 µM
GI50 [5]: > 100 µM
TGI [5]: > 100 µM
GI50 [6]: > 100 µM
TGI [6]: > 100 µM
GI50 [7]: > 100 µM
TGI [7]: > 100 µM
GI50 [8]: > 100 µM
TGI [8]: > 100 µM

CCCCCCCCCCCCSC(=S)c1c(C)[nH]n(-c2ccccc2)c1=O
TGI [2]: > 50 µM
TGI [9]: > 50 µM
TGI [4]: 46.1 µM
TGI [5]: > 50 µM
TGI [6]: 35.6 µM
TGI [7]: > 50 µM
TGI [8]: > 50 µM

O=[N+]([O-])c1nccn1CC(O)c1ccccc1 (stereo unspecified)
TGI [2]: > 100 µM
TGI [9]: > 100 µM
TGI [4]: > 100 µM
TGI [5]: > 100 µM
TGI [6]: > 100 µM
TGI [7]: > 100 µM
TGI [8]: > 100 µM

CCOC(=O)C12CCCC1(O)N(NC(=O)OC)C(C)=C2C(=O)OC (stereo unspecified)
TGI [2]: > 100 µM
TGI [9]: > 100 µM
TGI [4]: > 10 µM
TGI [5]: > 100 µM
TGI [6]: > 10 µM
TGI [7]: > 100 µM
TGI [8]: > 100 µM

O=C(CC1(O)C(=O)Nc2c(Cl)cc(Cl)cc21)c1ccccc1 (stereo unspecified)
TGI [2]: > 100 µM
TGI [9]: > 100 µM
TGI [4]: > 100 µM
TGI [5]: > 100 µM
TGI [6]: > 100 µM
TGI [7]: > 100 µM
TGI [8]: > 100 µM

COc1ccc(N2C(=O)C3CC(c4ccc(Br)cc4)c4c([nH]c5ccccc45)C3C2=O)cc1 (stereo unspecified)
TGI [2]: > 100 µM
TGI [9]: 29.3 µM
TGI [5]: 73.4 µM
TGI [6]: 24.3 µM
TGI [7]: 15.2 µM
TGI [8]: 20 µM

CC(C)(C)C(=O)N1C(C(=O)O)Cc2ccccc2[C@@H]1Cc1ccccc1 (stereo partly specified)
TGI [2]: > 100 µM
TGI [9]: > 100 µM
TGI [4]: > 100 µM
TGI [5]: > 100 µM
TGI [6]: > 100 µM
TGI [7]: > 100 µM
TGI [8]: > 100 µM

[N-]=[N+]=NCN1C(=O)C2C3C=CC(C2C1=O)C1C2C(=O)N(CN=[N+]=[N-])C(=O)C2C31 (stereo unspecified)
TGI [1]: > 100 µM
TGI [2]: > 100 µM
TGI [9]: > 100 µM
TGI [3]: > 100 µM
TGI [4]: > 100 µM
TGI [6]: > 100 µM
TGI [7]: > 100 µM
TGI [8]: > 100 µM

COc1ccc(/C=C/c2cc(OC)c(OC(C)=O)c(OC)c2)cc1
TGI [2]: 80.6 µM
TGI [9]: 65.1 µM
TGI [4]: > 100 µM
TGI [5]: 59 µM
TGI [7]: 75.2 µM

Cc1cccc(-c2nnc3s/c(=C\c4ccc(N(C)C)cc4)c(=O)n23)c1
TGI [9]: > 100 µM
TGI [4]: > 100 µM
TGI [5]: > 100 µM
TGI [6]: > 100 µM
TGI [7]: > 100 µM
TGI [8]: > 100 µM

NC(=S)N1N=C2CCCCCC[C@@H]2[C@H]1c1ccccc1
TGI [2]: > 100 µM
TGI [4]: > 100 µM
TGI [5]: > 100 µM
TGI [6]: > 100 µM
TGI [7]: > 100 µM
TGI [8]: > 100 µM
